Results taken from patent US20220127258A1, “AROMATIC RING OR HETEROAROMATIC RING COMPOUNDS, PREPARATION METHOD THEREFOR AND MEDICAL USE THEREOF” (The National Institutes of Pharmaceutical R&D Co., Ltd., priority 2019, published 2022).

Assay: Visual inspection of solubility of test sample in extracellular fluid
Assay type: physicochemical
Details: 0.3 μM to 30 μM solutions in extracellular fluid pH 7.4, from DMSO stock
Method: Extracellular fluid: 140 mM NaCl, 3.5 mM KCl, 1 mM MgCl2, 2 mM CaCl2, 10 mM glucose, 10 mM HEPES, 1.25 mM NaH2PO4, pH=7.4 (adjusted by NaOH). The stock solution of the compound of Example 8 of the present invention (30.26 mM solution in DMSO) was successively diluted with 10 mL of extracellular fluid to obtain 0.3 μM, 1 μM, 3 μM, […], and 30 μM solutions. […] 10 mg of Cisapride was dissolved in 2066.29 μL of dimethyl sulfoxide (DMSO) to obtain a 10 mM stock solution. The Cisapride stock solution was successively diluted with dimethyl sulfoxide (DMSO) to obtain a total of 4 concentrations of 1 μM, 10 μM, 100 μM and 1 mM. Before the test, 10 μL of the diluent at each concentration was added to 10 mL of extracellular fluid to ensure that the DMSO concentration was 0.1%. The final working concentration of Cisapride was 1 nM, 10 nM, 100 nM and 1 μM.

For `O=C(O)c1ccc(-c2nnc(N3[C@@H]4CC[C@H]3C[C@@H](OCc3c(-c5c(Cl)cccc5Cl)noc3C3CC3)C4)o2)cc1` [Example 8, 4-(5-((1R,3r,5S)-3-((5-cyclopropyl-3-(2,6-dichlorophenyl)isoxazol-4-yl)methoxy)-8-azabicyclo[3.2.1]octan-8-yl)-1,3,4-oxadiazol-2-yl)benzoic acid], the “solubility of the test sample, visually inspected” value was “completely dissolved without visible precipitation”.
